13 compounds from US10391070B2, “Compositions and methods for treating neurological diseases or injury” (MUSC FOUNDATION FOR RESEARCH DEVELOPMENT, priority 2012, dated 2019) can be followed below.

Each structure is given as a SMILES string. Where two headings read alike, the source gives them in different places. Where only a bound is given, the exact number is not on record here.

Common to all, as to format: cell-based, mouse
The subject of data set [1] is HT22 cells. Kind of data set: In vitro neuroprotective activity against glutamate-induced cell death (MTS cell viability). The note with it: Mus musculus, read-out: Protection PC50. Here is the method:
(§1) The HT22 neuronal cell line is a subclone of HT4, derived from the mouse hippocampus (Morimoto and Koshland, 1990). […] HT22 cells were used. The cells were grown in Dulbecco's Modified Eagle's medium (DMEM/high glucose) supplemented with 10% fetal bovine serum (Hyclone) and 5 mL Antibiotic-Antimycotic (Amphotericin B, Penicillin, and Streptomycin; Invitrogen) at 37° C. in 5% CO2.
(§2) Cell viability was assessed by the ability of the viable cells to metabolize 3-(4,5-dimethylthiazol-2-yl)-5-(3-carboxymethoxyphenyl)-2(4-sulfophenyl)2-H-tetrazolium, inner salt (MTS), as described previously (Cory et al., 1991). The metabolism of tetrazolium salts is often used to measure cellular proliferation, but in the system used here, it has been previously shown to correlate well with cell viability as determined by trypan blue exclusion and colony-forming assays (Davis and Maher, 1994). Briefly, HT-22 cells were seeded onto 96-well plates at 5.0×10^3 cells per well in 75 μL of medium and maintained at 37° C. in 5% CO2 overnight prior to the initiation of experimental treatments. For glutamate toxicity testing, cells were subsequently treated with 25 μL of medium containing glutamate (monosodium glutamate, Sigma, 1 M stock concentration in media, to achieve a final concentration of 10 mM) plus inhibitors (stock in DMSO) and maintained at 37° C. in 5% CO2. For t-BuOOH toxicity testing, cells were subsequently treated with 25 μL of medium containing t-BuOOH (Sigma, 10 mM stock concentration, to achieve a final concentration of 50 μM) plus inhibitors (stock in DMSO) and maintained at 37° C. in 5% CO2 for 3 hours, after which the media was removed, cells washed gently with HBSS, the media replaced with standard culture media, and the cells returned to incubation at 37° C. in 5% CO2. For both glutamate and t-BuOOH treatments, 10 μl of MTS solution was added to each well 24 hrs after initial treatment, and the cells were maintained in growth medium for 2 h at 37° C. Absorbance at 490 nm was subsequently measured by a SpectraMax 190 plate reader (Molecular Devices). The growth medium without cells in the presence of MTS solution was used as solution background and untreated cells were considered the controls. Cell viability was calculated as a percentage compared with untreated controls. EC50 determinations were based on 12-point titrations using GraphPad Prism, and each experiment was repeated at least four times. Morphology of HT22 cells following treatments was determined by phase-contrast microscopy. Digital images of cells grown on cell culture plates were captured at 10× magnification.
The neuroprotective properties of VK and its derivatives were estimated through their protective effects against cell death in mouse neuronal HT22 cells induced by exposure to high levels of glutamate, which recapitulates a hallmark of the extracellular environment found in several neurodegenerative diseases and CNS injuries and is a well established model of neuronal oxidative stress. This investigation began by comparing the relative abilities of the two predominant naturally occurring forms of VK, VK1 and VK2, to prevent oxidative cell death. […] Several 1,4-naphthoquinones with various substitutions at the 2′ and 3′ positions were tested to determine the minimum structural requirement of the system and what the optimum scaffold for future developmental efforts and biological validation would be (FIG. 1B and Table 1). […] Substitution by a single methyl group at the 2′ position (VK3) improves the compound's ability to protect against cell death. Various other simple substituents at the 2′ and 3′ positions give the naphthoquinone structure the ability to prevent oxidative cell death at nanomolar concentrations (Table 1 and FIG. 16).

Data set [2] is described as follows: In vitro neurotoxicity without glutamate (MTS cell viability). Conditions: mouse, HT22 cells without glutamate, 24 hrs, MTS, concentration producing 50% toxicity, read-out: Toxicity TC50. Here is the method: as §1, §2
Data set [3] concerns HT22 cells. The data set is described as above. Conditions: HT22 cells. The procedure:
as §1, §2

Setting [4] is: HT-22, HT22 cells, 10 mM glutamate, 24 hrs, MTS, concentration producing 50% protection.
Where [5] appears, read: HT22 neuronal cells (without glutamate).

`CC(C)C(=O)NC1=CC(=O)c2ccccc2C1=O` [Compound 3d, N-(1,4-dioxo-1,4-dihydronaphthalen-2-yl)isobutyramide]: the EC50 in the data set on HT22 cells [1] (setting [4]) was more than 1 µM. Moreover, the CC50 at 24 h in data set [2] (setting [5]) came to 8 µM. Further, in the data set with HT22 cells [3], the “Safety Index TC50/PC50” value was found to be 0.
With `O=C1C=C(NC(=O)C2CCCC2)C(=O)c2ccccc21` [Compound 3e, N-(1,4-dioxo-1,4-dihydronaphthalen-2-yl)cyclopentanecarboxamide], the EC50 with HT22 cells [1] (setting [4]) is more than 1 µM. The CC50 at 24 h in data set [2] (setting [5]) is 6 µM. The “Safety Index TC50/PC50” value in the data set with HT22 cells [3] is on record as 0.
For `O=C1C=C(NC(=O)C2CCCCC2)C(=O)c2ccccc21` [Compound 3f, N-(1,4-dioxo-1,4-dihydronaphthalen-2-yl)cyclohexanecarboxamide], the EC50 in the data set with HT22 cells [1] (setting [4]) was found to be 0.275 µM. Also, the CC50 at 24 h in data set [2] (setting [5]) is 14 µM. Further, the “Safety Index TC50/PC50” value in the data set on HT22 cells [3] is listed as 51.
Regarding `O=C(NC1=CC(=O)c2ccccc2C1=O)c1ccccc1` [Compound 3g, N-(1,4-dioxo-1,4-dihydronaphthalen-2-yl)benzamide], the EC50 in the data set with HT22 cells [1] (HT-22, 24 h) worked out at 0.5 µM. In data set [2] (setting [5]), the CC50 at 24 h turned out to be 17 µM. In addition, the “Safety Index TC50/PC50” value with HT22 cells [3] amounted to 34.
Regarding `Cc1ccc(C(=O)NC2=CC(=O)c3ccccc3C2=O)cc1` [Compound 3h, N-(1,4-dioxo-1,4-dihydronaphthalen-2-yl)-4-methylbenzamide], in the data set on HT22 cells [1] (setting [4]), the EC50 was determined as 0.382 µM. Moreover, the CC50 at 24 h in data set [2] (setting [5]) was found to be 24 µM. For the same compound, the “Safety Index TC50/PC50” value in the data set on HT22 cells [3] was determined as 63.
With `O=C(NC1=CC(=O)c2ccccc2C1=O)c1ccc(Cl)cc1` [Compound 3i, 4-chloro-N-(1,4-dioxo-1,4-dihydronaphthalen-2-yl)benzamide], the EC50 in the data set on HT22 cells [1] (setting [4]) is 0.405 µM. Moreover, the CC50 at 24 h in data set [2] (setting [5]) worked out at 27 µM. In the data set on HT22 cells [3], the “Safety Index TC50/PC50” value came to 67.
With `O=C(NC1=CC(=O)c2ccccc2C1=O)c1cccc(Cl)c1` [Compound 3j, 3-chloro-N-(1,4-dioxo-1,4-dihydronaphthalen-2-yl)benzamide], the EC50 in the data set on HT22 cells [1] (setting [4]) stood at 0.492 µM. Besides, in data set [2] (setting [5]), the CC50 at 24 h was more than 100 µM. Further, the “Safety Index TC50/PC50” value with HT22 cells [3] amounted to 203.
`O=C(Cc1ccccc1)NC1=CC(=O)c2ccccc2C1=O` [Compound 3k, N-(1,4-dioxo-1,4-dihydronaphthalen-2-yl)-2-phenylacetamide]: in the data set on HT22 cells [1] (setting [4]), the EC50 amounted to 0.658 µM. Further, the CC50 at 24 h in data set [2] is 32 µM. Further, the “Safety Index TC50/PC50” value in the data set with HT22 cells [3] was determined as 49.
Take `O=C(Cc1ccc(-c2ccccc2)cc1)NC1=CC(=O)c2ccccc2C1=O` [Compound 3l, 2-([1,1′-biphenyl]-4-yl)-N-(1,4-dioxo-1,4-dihydronaphthalen-2-yl)acetamide]: in the data set with HT22 cells [1] (setting [4]), the EC50 amounted to 0.89 µM. Further, the CC50 at 24 h in data set [2] (setting [5]) stood at 42 µM. Moreover, the “Safety Index TC50/PC50” value in the data set on HT22 cells [3] is recorded as 47.
In the case of `CCNC(=O)NC1=CC(=O)c2ccccc2C1=O` [Compound 4a, 1-(1,4-dioxo-1,4-dihydronaphthalen-2-yl)-3-ethylurea], in the data set on HT22 cells [1] (setting [4]), the EC50 stood at 0.177 µM. Also, in data set [2], the CC50 at 24 h is 5 µM. The “Safety Index TC50/PC50” value in the data set with HT22 cells [3] was 28.
`CC(C)NC(=O)NC1=CC(=O)c2ccccc2C1=O` [Compound 4b, 1-(1,4-dioxo-1,4-dihydronaphthalen-2-yl)-3-isopropylurea]: in the data set on HT22 cells [1] (setting [4]), the EC50 came to 0.064 µM. Also, in data set [2] (setting [5]), the CC50 at 24 h stood at 8 µM. Besides, the “Safety Index TC50/PC50” value with HT22 cells [3] is recorded as 125.
As for `O=C(NC1=CC(=O)c2ccccc2C1=O)Nc1ccccc1` [Compound 4c, 1-(1,4-dioxo-1,4-dihydronaphthalen-2-yl)-3-phenylurea], the EC50 in the data set with HT22 cells [1] (setting [4]) is 0.89 µM. Also, the CC50 at 24 h in data set [2] (setting [5]) was more than 100 µM. Also, the “Safety Index TC50/PC50” value with HT22 cells [3] turned out to be 112.
As for `O=C(NCc1ccccc1)NC1=CC(=O)c2ccccc2C1=O` [Compound 4d, 1-benzyl-3-(1,4-dioxo-1,4-dihydronaphthalen-2-yl)urea], the EC50 in the data set with HT22 cells [1] (setting [4]) was 0.74 µM. Moreover, the CC50 at 24 h in data set [2] was more than 100 µM. For the same compound, the “Safety Index TC50/PC50” value in the data set with HT22 cells [3] stood at 135.
